From article PMC11165489, “Polyketide Trimming Shapes Dihydroxynaphthalene‐Melanin and Anthraquinone Pigments” (Advanced Science, 2024) come the findings set out here.

Common to all, as to assay type: binding
One experiment deals with T1, PlAntI (Photorhabdus laumondii, UniProt Q7MZT8).
T1 construct: gene plu4186; crystallised enzyme; catalytic Ser245, His355, Asp326; construct and host only in supplement
T1 sequence (Q7MZT8 1-384): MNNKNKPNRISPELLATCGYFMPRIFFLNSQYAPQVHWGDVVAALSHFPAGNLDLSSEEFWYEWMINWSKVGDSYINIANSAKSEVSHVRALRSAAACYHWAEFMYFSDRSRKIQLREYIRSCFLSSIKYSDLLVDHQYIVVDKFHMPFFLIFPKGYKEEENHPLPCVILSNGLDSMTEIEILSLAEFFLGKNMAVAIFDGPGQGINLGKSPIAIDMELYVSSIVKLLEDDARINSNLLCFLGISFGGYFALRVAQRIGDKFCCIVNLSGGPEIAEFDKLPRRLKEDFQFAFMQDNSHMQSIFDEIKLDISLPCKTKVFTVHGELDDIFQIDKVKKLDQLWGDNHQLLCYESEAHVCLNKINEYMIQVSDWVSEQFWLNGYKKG
Put plainly: X-ray crystal structure; mass spectrometry. The settings on record: covalent; Ser245 converted to dehydroalanine, inhibitor itself eliminated; 1.8 A.

Another experiment has as its target T2, Wdyg1p (Exophiala dermatitidis, UniProt Q6BCB5).
T2 construct: gene yg1; homodimer; N-domain residues 1-139, C-domain residues 144-393; active-site Ser256, His378; construct and host only in supplement
Put plainly: X-ray crystal structure.

The target of a further experiment is T3, Afyg1p (Aspergillus fumigatus, UniProt Q4WZB3).
T3 construct: gene ayg1; homodimer; active-site Ser257, His380, Asp352; construct and host only in supplement
Put plainly: X-ray crystal structure. The settings on record: reaction product in specificity pocket; 1.7 A.

T2 sequence (Q6BCB5 entry or part of it): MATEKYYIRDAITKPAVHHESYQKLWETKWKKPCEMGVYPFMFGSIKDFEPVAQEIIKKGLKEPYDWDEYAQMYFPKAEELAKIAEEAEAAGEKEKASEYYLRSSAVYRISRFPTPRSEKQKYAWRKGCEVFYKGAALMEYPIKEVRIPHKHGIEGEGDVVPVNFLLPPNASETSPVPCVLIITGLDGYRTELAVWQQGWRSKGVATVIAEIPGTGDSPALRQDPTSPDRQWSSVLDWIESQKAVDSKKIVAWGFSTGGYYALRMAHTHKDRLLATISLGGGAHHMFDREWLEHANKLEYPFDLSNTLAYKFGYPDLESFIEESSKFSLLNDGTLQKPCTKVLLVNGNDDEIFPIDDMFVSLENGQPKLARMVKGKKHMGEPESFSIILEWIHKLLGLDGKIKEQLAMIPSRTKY
T3 sequence (Q4WZB3 2-406): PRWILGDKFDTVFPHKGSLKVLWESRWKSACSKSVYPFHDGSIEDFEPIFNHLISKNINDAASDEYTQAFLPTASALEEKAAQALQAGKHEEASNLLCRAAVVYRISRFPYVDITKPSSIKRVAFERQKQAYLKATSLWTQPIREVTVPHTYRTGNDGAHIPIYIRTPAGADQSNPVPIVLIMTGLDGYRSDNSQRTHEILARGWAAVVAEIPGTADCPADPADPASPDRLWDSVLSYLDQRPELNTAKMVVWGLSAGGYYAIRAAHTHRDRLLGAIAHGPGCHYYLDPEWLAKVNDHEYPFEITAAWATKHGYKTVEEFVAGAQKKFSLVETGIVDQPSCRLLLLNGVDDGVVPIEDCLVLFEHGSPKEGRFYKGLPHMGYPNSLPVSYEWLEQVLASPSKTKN

`O=S(=O)(F)c1ccccc1` [PSF, phenyl‐SF]: the “X-ray crystal structure; mass spectrometry” value at PlAntI is “treatment of PlAntI with PMSF (*) or PSF (^#) appears to also introduce a DHA”. For the same compound, the X-ray crystal structure entry on Wdyg1p (covalent, Ser256 converted to dehydroalanine, inhibitor itself eliminated, 1.85 A) was “treatment of Wdyg1p with PMSF (*) or PSF (^#) leads to the β‐elimination mediated conversion”.
For the compound `Oc1cc(O)c2c(O)cc(O)cc2c1` [THN, 1,3,6,8‐tetrahydroxynaphthalene], the X-ray crystal structure result is recorded as “Wdyg1p crystal structure in complex with its product, THN (Wdyg1p:THN, PDB ID: 8QD9” on Wdyg1p (reaction product in specificity pocket, 1.95 A) and “the structure of Afyg1p in complex with its reaction product THN was analyzed” at Afyg1p.
